In assay [1] the test system is KRas G12D-mediated phosphorylation of ERK. The assay is described as follows: Inhibition of KRas G12D-mediated phosphorylation of ERK in AGS cells. Format: cell-based. Conditions: Homo sapiens; AGS cells expressing G12D, 3 hours, phospho-ERK normalized to GAPDH. Here is the method: AGS cells (ATCC CRL-1739) expressing G12D were grown in DMEM medium supplemented with 10% fetal bovine serum, 10 mM HEPES, and Penicillin/Streptomycin. Cells were plated in tissue culture treated 96 well plates at a density of 40,000 cells/well and allowed to attach for 12-14 hours. Diluted compounds were then added in a final concentration of 0.5% DMSO. After 3 hours, the medium was removed, 150 μl of 4.0% formaldehyde was added and the plates incubated at room temperature for 20 minutes. The plates were washed with PBS, and permeabilized with 150p of ice cold 100% methanol for 10 minutes. Non-specific antibody binding to the plates was blocked using 100 μL Licor blocking buffer (Li-Cor Biotechnology, Lincoln NE) for 1 hour at room temperature.
The amount of phosho-ERK was determined using an antibody specific for the phosphorylated form of ERK and compared to the amount of GAPDH. Primary antibodies used for the detection were added as follows: Phospho-ERK (Cell Signaling cs-9101) diluted 1:500 and GAPDH (Millipore MAB374) diluted 1:5000 in Licor block+0.05% Tween 20. The plates were incubated for 2 hours at room temperature. The plates were washed with PBS+0.05% Tween 20.
Secondary antibodies used to visualize primary antibodies were added as follows: Anti-rabbit-680 diluted 1:1000 and Anti-mouse-800 diluted 1:1000 both in Licor block+0.05% Tween20, and were incubated for 1 hour at room temperature. The plates were washed with PBS +0.05% Tween 20. A 100 μl aliquot of PBS was added to each well and the plates were read on a Li-Cor Odyssey CLX plate reader phospho-ERK (Thr202/Tyr204) signal was normalized to the GAPDH signal for each well and percent of DMSO control values were calculated. IC50 values were generated using a 4-parameter fit of the dose response curve

In assay [2] the target is T1, GDP-loaded recombinant human KRAS G12D (Homo sapiens, UniProt P01116, G12D).
T1 construct: corresponding to amino acids 1:169, produced at Array BioPharma; biotin (biotinylated); made in house
The assay is described as follows: KRas G12D Binding Assay (TR-FRET displacement of Cy5 labelled tracer). Conditions: 60 minute incubation at 22° C. Here is the method:
This Example illustrates that exemplary compounds of the present invention bind to KRas G12D and are capable of displacing a labeled tracer ligand occupying the KRas G12D binding site.
The ability of a compound to bind to KRAS G12D was measured using a TR-FRET displacement assay. Biotinylated GDP-loaded recombinant human KRAS G12D (corresponding to amino acids 1:169, produced at Array BioPharma) was incubated with a custom-made Cy5 labelled tracer, europium labelled streptavidin and compound (2% DMSO final) in buffer (50 mM HEPES [pH 7.5], 5 mM MgCl2, 0.005% Tween-20 & 1 mM DTT). After a 60 minute incubation at 22° C., the reaction was measured using a PerkinElmer EnVision multimode plate reader via TR-FRET dual wavelength detection, and the percent of control (POC) calculated using a ratiometric emission factor. […] The POC values were fit to a 4-parameter logistic curve and the IC50 value was determined as the concentration where the curve crosses 50 POC.
On the technique in general: TR-FRET usually uses a lanthanide donor and a delayed reading to cut background.

T1 sequence (P01116 1-169 isoform P01116-2 G12D): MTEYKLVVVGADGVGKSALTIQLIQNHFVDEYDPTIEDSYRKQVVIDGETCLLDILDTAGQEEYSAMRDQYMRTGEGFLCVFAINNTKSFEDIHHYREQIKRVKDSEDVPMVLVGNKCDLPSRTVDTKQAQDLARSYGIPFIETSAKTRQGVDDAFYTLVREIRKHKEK

One may read the IC50 as the midpoint of a concentration-inhibition curve. Consider `Oc1cc(-c2ccc3c(N4CC5CCC(C4)N5)nc(OCC45CCCN4C[C@H](F)C5)nc3c2F)c2c(Cl)cccc2c1` (mixture of isomers) [Example 5, 4-(4-((1R,5S)-3,8-diazabicyclo[3.2.1]octan-3-yl)-8-fluoro-2-(((2R,7aS)-2-fluorotetrahydro-1H-pyrrolizin-7a(5H)-yl)methoxy)quinazolin-7-yl)-5-chloronaphthalen-2-ol], for which the IC50 in assay [1] is 42 nM; in assay [2], 1.4 nM.
As to `Oc1cccc(F)c1-c1c(Cl)cc2c(N3CC4CCC(C3)N4)nc(OCC34CCCN3C[C@H](F)C4)nc2c1F` (mixture of isomers) [Example 6, 2-(4-((1R,5S)-3,8-diazabicyclo[3.2.1]octan-3-yl)-6-chloro-8-fluoro-2-(((2R,7aS)-2-fluorotetrahydro-1H-pyrrolizin-7a(5H)-yl)methoxy)quinazolin-7-yl)-3-fluorophenol], the half-inhibitory concentration (IC50) amounted to 1800 nM in assay [1] and 3.5 nM in assay [2].
The corresponding values for `N#Cc1ccccc1Oc1cc2c(N3CC4CCC(C3)N4)nc(OCC34CCCN3C[C@H](F)C4)nc2cc1-c1cc(O)cc2ccccc12` (mixture of isomers) [Example 22, 2-((4-((1R,5R)-3,8-diazabicyclo[3.2.1]octan-3-yl)-2-(((2R,7aS)-2-fluorotetrahydro-1H-pyrrolizin-7a(5H)-yl)methoxy)-7-(3-hydroxynaphthalen-1-yl)quinazolin-6-yl)oxy)benzonitrile] are 140 nM and 1.7 nM.
As for `N#Cc1ccccc1Oc1cc2c(N3CC4CCC(C3)N4)nc(OCC34CCCN3C[C@H](F)C4)nc2c(F)c1-c1cc(O)cc2ccccc12` (mixture of isomers) [Example 27, 2-((4-((1R,5S)-3,8-diazabicyclo[3.2.1]octan-3-yl)-8-fluoro-2-(((2R,7aS)-2-fluorotetrahydro-1H-pyrrolizin-7a(5H)-yl)methoxy)-7-(3-hydroxynaphthalen-1-yl)quinazolin-6-yl)oxy)benzonitrile], the values for the IC50 in assay [1] and in assay [2] were 44 nM and 3.6 nM, respectively.
Regarding `Oc1cc(-c2ccc3c(N4CC5CCC(C4)N5)nc(OCC45CCCN4C[C@H](F)C5)nc3c2F)c2ccccc2c1` (mixture of isomers) [Example 28, 4-(4-((1R,5S)-3,8-diazabicyclo[3.2.1]octan-3-yl)-8-fluoro-2-(((2R,7aS)-2-fluorotetrahydro-1H-pyrrolizin-7a(5H)-yl)methoxy)quinazolin-7-yl)naphthalen-2-ol], the IC50 amounted to 171 nM in assay [1] and 0.6 nM in assay [2].
For `CN1CCC[C@H]1COc1nc(N2CC3CCC(C2)N3)c2cc(Oc3cccnc3)c(-c3cc(O)cc4ccccc34)cc2n1` [Example 1], in that order: 8390 nM and 7 nM.
Consider `Oc1cc(-c2ccc3c(N4C[C@H]5CC[C@@H](C4)N5)nc(OCC45CCCN4CCC5)nc3c2F)c2ccccc2c1` [Example 3, 4-(4-((1R,5S)-3,8-diazabicyclo[3.2.1]octan-3-yl)-8-fluoro-2-((tetrahydro-1H-pyrrolizin-7a(5H)-yl)methoxy)quinazolin-7-yl)naphthalen-2-ol], for which the results for the IC50 in assay [1] and in assay [2] were 95 nM and 0.5 nM, respectively.
In the case of `Oc1cc(-c2ccc3c(N4C[C@H]5CC[C@@H](C4)N5)nc(OCC45CCCN4CCC5)nc3c2F)c2c(Cl)cccc2c1` [Example 4, 4-(4-((1R,5S)-3,8-diazabicyclo[3.2.1]octan-3-yl)-8-fluoro-2-((tetrahydro-1H-pyrrolizin-7a(5H)-yl)methoxy)quinazolin-7-yl)-5-chloronaphthalen-2-ol], the IC50 in assay [1] was found to be 21 nM; in assay [2], 0.7 nM.
The corresponding values for `CN1CCC[C@H]1COc1nc(N2CCN(CCCl)CC2)c2ccc(-c3cc(O)cc4ccccc34)c(F)c2n1` [Example 9, (S)-4-(4-(4-(2-chloroethyl)piperazin-1-yl)-8-fluoro-2-((1-methylpyrrolidin-2-yl)methoxy)quinazolin-7-yl)naphthalen-2-ol] are 6790 nM and 187 nM.
For `COc1ccc(F)c(Oc2cc3c(N4C[C@H]5CC[C@@H](C4)N5)nc(OC[C@@H]4CCCN4C)nc3cc2-c2cc(O)cc3ccccc23)c1` [Example 17, 4-(4-((1R,5S)-3,8-diazabicyclo[3.2.1]octan-3-yl)-6-(2-fluoro-5-methoxyphenoxy)-2-(((S)-1-methylpyrrolidin-2-yl)methoxy)quinazolin-7-yl)naphthalen-2-ol bis(2,2,2-trifluoroacetate)], in that order: 5560 nM and 8 nM.
For the compound `COc1ccc(Oc2cc3c(N4C[C@H]5CC[C@@H](C4)N5)nc(OC[C@@H]4CCCN4C)nc3cc2-c2cc(O)cc3ccccc23)c(Cl)c1` [Example 18, 4-(4-((1R,5S)-3,8-diazabicyclo[3.2.1]octan-3-yl)-6-(2-chloro-4-methoxyphenoxy)-2-(((S)-1-methylpyrrolidin-2-yl)methoxy)quinazolin-7-yl)naphthalen-2-ol], the IC50 in assay [1] was 1370 nM; in assay [2], 11.5 nM.
For `CN1CCC[C@H]1COc1nc(N2C[C@H]3CC[C@@H](C2)N3)c2cc(Oc3ccccc3Cl)c(-c3cc(O)cc4ccccc34)cc2n1` [Example 19, 4-(4-((1R,5S)-3,8-diazabicyclo[3.2.1]octan-3-yl)-6-(2-chlorophenoxy)-2-(((S)-1-methylpyrrolidin-2-yl)methoxy)quinazolin-7-yl)naphthalen-2-ol], in that order: 1700 nM and 1.3 nM.
As for `CN1CCC[C@H]1COc1nc(N2C[C@H]3CC[C@@H](C2)N3)c2cc(Oc3ccccc3C#N)c(-c3cc(O)cc4ccccc34)cc2n1` [Example 20, 2-((4-((1R,5S)-3,8-diazabicyclo[3.2.1]octan-3-yl)-7-(3-hydroxynaphthalen-1-yl)-2-(((S)-1-methylpyrrolidin-2-yl)methoxy)quinazolin-6-yl)oxy)benzonitrile], the IC50 in assay [1] is 2160 nM; in assay [2], 1.6 nM.
For `N#Cc1ccccc1Oc1cc2c(N3C[C@H]4CC[C@@H](C3)N4)nc(OCC34CCCN3CCC4)nc2cc1-c1cc(O)cc2ccccc12` [Example 21, 2-((4-((1R,5S)-3,8-diazabicyclo[3.2.1]octan-3-yl)-7-(3-hydroxynaphthalen-1-yl)-2-((tetrahydro-1H-pyrrolizin-7a(5H)-yl)methoxy)quinazolin-6-yl)oxy)benzonitrile], in that order: 1270 nM and 1 nM.
With `Oc1cc(-c2cc3nc(OC[C@@]45CCCN4C[C@H](F)C5)nc(N4C[C@H]5CC[C@@H](C4)N5)c3cc2Oc2ccccc2Cl)c2c(Cl)cccc2c1` [Example 23, 4-(4-((1R,5S)-3,8-diazabicyclo[3.2.1]octan-3-yl)-6-(2-chlorophenoxy)-2-(((2R,7aS)-2-fluorotetrahydro-1H-pyrrolizin-7a(5H)-yl)methoxy)quinazolin-7-yl)-5-chloronaphthalen-2-ol], the IC50 was found to be 264 nM in assay [1] and 6.6 nM in assay [2].
As for `CN1CCC[C@H]1COc1nc(N2C[C@H]3CC[C@@H](C2)N3)c2cc(Oc3ccccc3C#N)c(-c3cc(O)cc4ccccc34)c(F)c2n1` [Example 24, 2-((4-((1R,5S)-3,8-diazabicyclo[3.2.1]octan-3-yl)-8-fluoro-7-(3-hydroxynaphthalen-1-yl)-2-(((S)-1-methylpyrrolidin-2-yl)methoxy)quinazolin-6-yl)oxy)benzonitrile], the IC50 in assay [1] stood at 377 nM; in assay [2], 1.4 nM.
For `CN1CCC[C@H]1COc1nc(N2C[C@H]3CC[C@@H](C2)N3)c2cc(Oc3c(Cl)cccc3C#N)c(-c3cc(O)cc4ccccc34)c(F)c2n1` [Example 25, 2-((4-((1R,5S)-3,8-diazabicyclo[3.2.1]octan-3-yl)-8-fluoro-7-(3-hydroxynaphthalen-1-yl)-2-(((S)-1-methylpyrrolidin-2-yl)methoxy)quinazolin-6-yl)oxy)-3-chlorobenzonitrile], in that order: 784 nM and 5.3 nM.
For `CN1CCC[C@H]1COc1nc(N2C[C@H]3CC[C@@H](C2)N3)c2cc(Oc3cccc(F)c3C#N)c(-c3cc(O)cc4ccccc34)c(F)c2n1` [Example 26, 2-((4-((1R,5S)-3,8-diazabicyclo[3.2.1]octan-3-yl)-8-fluoro-7-(3-hydroxynaphthalen-1-yl)-2-(((S)-1-methylpyrrolidin-2-yl)methoxy)quinazolin-6-yl)oxy)-6-fluorobenzonitrile], the IC50 in assay [1] was 3540 nM; in assay [2] it was 7.4 nM.
